Results from publication PMC10534672, “A Nucleus-Targeting WT1 Antagonistic Peptide Encapsulated in Polymeric Nanomicelles Combats Refractory Chronic Myeloid Leukemia” (Pharmaceutics, 2023).
pIC50: −log10 of the molar value. Ends that are not written are not given here.

What was measured:
[1] = tested on: WT1+ BP-CML xenograft (K562) mice; test: Splenic infiltration (Ki67 staining of spleen); type: in vivo, BALB/c nude mice; conditions: after 14 days daily treatment, n = 3
[2] = tested on: myeloid leukemia; conditions: cited from earlier work
Source text: In CML, the influence of WT1 stems from its robust transcriptional control of genes associated with cell growth, metabolism, differentiation, and apoptosis. Interventions targeting WT1 can induce cell cycle arrest and apoptosis. […] Similarly, WT1-specific RNA interference led to an increase in G0/G1-phase cells and a decrease in S-phase cells. In this study, the WIP2W peptide halted the cell cycle in ...

[3] = Encapsulation efficiency of PEG-PE micelles by ultrafiltration; type: physicochemical; conditions: n = 3
Procedure: The ability of PEG-PE micelles to encapsulate WIP2W was assessed using an ultrafiltration method. Solutions of FITC-WIP2W-loaded micelles (with PEG-PE concentrations of 5, 10, 30, 50, 100, and 200 μM, and FITC-WIP2W at 10 μM) were placed into an ultra-centrifugal filter (MWCO 100,000, Millipore, Burlington, MA, USA). They were then centrifuged at 12,000× g for 30 min. The fluorescence intensity of the filtrate was subsequently measured spectrophotometrically. A concentration-to-fluorescence intensity relationship was then derived to determine the amount of unencapsulated FITC-WIP2W in the filtrate. From this, the encapsulation efficiency (EE%) of PEG-PE micelles for WIP2W can be calculated, as shown below. EE% = incorporated WIP2W/initial WIP2W added × 100%(1)

[4] = tested on: K562 cells; test: Intracellular localization by confocal laser scanning microscopy; type: cell-based, human; conditions: FITC-WIP2W 10 μM, K562, 37 °C, 3.5 h, Hoechst33342
Procedure: The precise localization of WIP2W was identified using the same microscope. K562 cells, after being exposed to FITC-WIP2W (10 μM) at 37 °C for 3.5 h, were gathered and stained with Hoechst33342. They were then moved to confocal dishes, where fluorescence data were captured.

[5] = tested on: WT1+ BP-CML xenograft (K562) mice; test: In vivo antitumor efficiency; design: species or system BALB/c nude mice; conditions: tumors excised after 14 days daily s.c. treatment, WIP2W 30 mg/kg
Procedure: These tumor-bearing mice were then randomly assigned to one of four groups (n = 5 per group). […] The subcutaneous tumor volume (mm^3) and body weight (g) were recorded three times per week, and the tumor volume can be computed according to the following equation:Tumor volume (mm^3) = L × W × W/2(2) where “L” and “W” denote the maximum and minimum dimensions, respectively. On day 19, the mice were slaughtered, and the retrieved major organs and tumors were stained with hematoxylin and eosin (H&E), WT1, and Ki67, respectively.

[6] = molecular target: T1, WT1 protein (Homo sapiens, UniProt P19544); test: Pull-down assay with biotin-WIP2W on streptavidin magnetic beads, anti-WT1 immunoblot; type: binding; design: incubated with protein lysates, including the nuclear and cytoplasmic proteins from K562 cells; endogenous in cells; host or cells: K562 cells; conditions: nuclear and cytoplasmic protein lysates of K562 cells, 2 h at 25 °C, anti-WT1 Western blot
T1 sequence (P19544 whole entry): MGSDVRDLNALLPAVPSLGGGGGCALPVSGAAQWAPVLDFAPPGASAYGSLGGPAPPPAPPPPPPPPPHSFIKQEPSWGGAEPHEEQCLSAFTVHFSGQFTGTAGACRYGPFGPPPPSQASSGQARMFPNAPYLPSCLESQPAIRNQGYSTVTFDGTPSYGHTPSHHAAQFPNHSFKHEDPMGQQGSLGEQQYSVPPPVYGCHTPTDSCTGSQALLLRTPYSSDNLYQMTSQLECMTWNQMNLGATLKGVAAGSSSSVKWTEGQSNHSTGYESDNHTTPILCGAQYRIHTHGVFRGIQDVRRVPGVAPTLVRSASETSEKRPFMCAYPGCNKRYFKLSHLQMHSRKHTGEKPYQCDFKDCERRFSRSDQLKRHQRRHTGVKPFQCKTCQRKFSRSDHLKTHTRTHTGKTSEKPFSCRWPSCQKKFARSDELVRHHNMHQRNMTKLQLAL
Procedure: Proteins from different localizations were harnessed for peptide–protein interaction studies. […] The bound WIP2W beads were magnetically separated, discarding the unattached WIP2W molecules in the leftover solution. The combined protein extracts from the whole cell, nucleus, and cytoplasm were then exposed to the WIP2W beads for another 2 h at 25 °C. Finally, the bead eluates were probed using an anti-WT1 antibody.

[7] = tested on: K562 cells
Procedure: (§1) K562 (1.5 × 10^4/well) and L02 (8 × 10^3/well) cells were seeded in 96-well plates and incubated with gradient concentrations of peptides or micelles in complete mediums. After 24 or 48 h of incubation, each well was spiked with CCK-8 agent (10 μL) for another 2 h. Absorption was detected by a spectrophotometer at 450 nm (Molecular Devices, San Jose, CA, USA), and IC50 values were calculated by curve fitting.

[8] = tested on: K562 cells; test: Cell cycle analysis (PI, flow cytometry); type: cell-based, human; conditions: K562, 10 μM, 24 h
Procedure: K562 cells were incubated in the absence and presence of WIP2W (10 μM) for 24 h. Subsequently, these cells were collected and fixed with 75% cold ethanol overnight, followed by treatment with propidium iodide (PI) and RNase A. Then, the cell fluorescence was examined using flow cytometry, and the cell cycle profiles were analyzed using FlowJo 10.

[9] = Biological safety in vivo (body weight, H&E of major organs)
[10] = tested on: K562 cells; test: Cellular uptake by flow cytometry; type: cell-based, human; conditions: FITC-WIP2W 0.05, 0.5 and 5 μM, K562, 37 °C, 2 h, n = 3
Procedure: The percentage of positive cells and their mean fluorescence intensity were then analyzed using a flow cytometer, with each condition tested in triplicate (n = 3).

[11] = tested on: L02 cells; test: Cytotoxicity assay (CCK-8); conditions: L02, up to 40 μM, 24 h
Procedure: as §1

[12] = tested on: WT1+ BP-CML xenograft (K562) mice; conditions: single subcutaneous injection, 30 mg/kg WIP2W (FITC-labelled), 4 h, IVIS of heart, liver, spleen, lung, kidney
Procedure: In this study, a WT1^+ BP-CML xenograft mouse model was developed. K562 cells (1 × 10^7/animal) were injected subcutaneously into the flanks of 5-week-old female BALB/c nude mice to generate primary BP-CML tumors. Once the tumors became noticeable, the mice were euthanized, and tumor cells were harvested. These cells were then reintroduced subcutaneously into a new set of hosts (1 × 10^7/animal) for further therapeutic investigations. […] Four hours post-administration, the mice were euthanized. Their tumors and primary organs were then extracted and assessed for fluorescence using IVIS (in vivo imaging system) equipment from PerkinElmer, USA.

[13] = molecular target: T1, WT1 protein; test: WT1 immunohistochemistry of excised tumors; type: in vivo, BALB/c nude mice; design: The excised tumors underwent immunohistochemical analysis using an anti-WT1 antibody; from tissue; host or cells: excised K562 xenograft tumours from BALB/c nude mice; conditions: anti-WT1 IHC, after 14 days daily s.c. treatment, WIP2W 30 mg/kg
Source text: […]. […] […].

Which “Ki67 staining of spleen (splenic infiltration of CML cells)” value [1] does the source give for `Cc1ccc(NC(=O)c2ccc(CN3CCN(C)CC3)cc2)cc1Nc1nccc(-c2cccnc2)n1` [imatinib, reference compound] here?
Its value is “pronounced fluorescence in the spleen”.

Which “Effect on cell cycle progression” value [2] does the source give for `COc1cc(/C=C/C(=O)CC(=O)/C=C/c2ccc(O)c(OC)c2)ccc1O` [curcumin] here?
Its value is “induce cell death and G2/M phase arrest”.

Which “Ki67 staining of spleen (splenic infiltration of CML cells)” value [1] does the source give for WWGGDQRRSWGRRRPDRRYGRKKRRQRRR [WIP2W] here?
Its value is “negligible signs of metastatic CML cells in the spleen”.

And the “Encapsulation efficiency (EE%)” value ([3]; molar ratio PEG-PE:WIP2W 3:1, FITC-WIP2W 10 μM in PBS, ultrafiltration MWCO 100,000, fluorescence)?
Its value is “approximately 72%”.

And the “Encapsulation efficiency (EE%)” value ([3]; molar ratio PEG-PE:WIP2W surpassed 10, FITC-WIP2W 10 μM in PBS, ultrafiltration, fluorescence)?
Its value is “exceeded 95%”.

What about the Intracellular localization [4] of the same molecule?
Its Intracellular localization is “majority of the green fluorescence was pinpointed in K562 cells’ nuclei”.

What about the “H&E staining of tumor tissues” value [5] of the same molecule?
Its value is “pronounced cell death”.

What about the “Binding of WIP2W to WT1 protein (pull-down)” value [6] of the same molecule?
The value was “specifically bind to the WT1 protein in both the nucleus and cytoplasm”.

And the Cell viability ([7]; K562, 20 μM, 24 h, CCK-8, PBS control = 100%)?
The Cell viability was < 10%.

And the pIC50 ([7]; read-out: IC50 (concentration that inhibited 50% K562 cell proliferation), K562, 24 h, CCK-8, n = 6)?
The pIC50 was 5.01.

And the “G2/M phase compartment of cell cycle distribution” value ([8]; n = 3 (control 22.4%))?
The value was 14.1%.

What about the “G0/G1 phase compartment of cell cycle distribution” value ([8]; n = 3 (control 24.1%)) of the same molecule?
Its value is 32.4%.

And the Body weight ([9]; 14 days daily treatment, compared to control and imatinib groups)?
The Body weight was “no significant weight loss”.

And the “H&E staining of major organs (systemic toxicity)” value ([9]; after 14 days daily treatment, imatinib 50 mg/kg i.p., WIP2W 30 mg/kg s.c.)?
Its value is “minimal systemic toxicity”.

And the Cellular uptake [10]?
Its Cellular uptake is “concentration dependency”.

What about the “Cytotoxicity in normal hepatic cell line L02” value [11] of the same molecule?
Its value is “no apparent cytotoxicity”.

And the “Distribution in major organs” value [12]?
Its value is “predominantly distributed in the liver and kidneys”.

And the “WT1 protein levels in tumor tissues relative to controls” value [13]?
Its value is “significantly diminished”.
